We go through 19 compounds from ChEMBL document CHEMBL1126818, “Isosteric replacement in a series of -substituted monophosphonate calcium antagonists” (Bioorg Med Chem Lett, 1993).

One assay is filed under the species Rattus norvegicus. Description: Inhibition of contractions induced by K+ depolarization in rat dorsal aorta. It counts as functional.
A short description of assay [1]: The compound was tested in vitro for its ability to displace [3H]PN-200-110 from Calcium Channel in rat brain membranes. The class given is cell membranes.
The nature of assay [2]: The compound was tested in vitro for its ability to displace [3H]PN-200-110 from rat brain membranes. The class given is tissue-based, Membrane.

The compound `CCCCNC(=O)NC(CCc1ccccc1)CP(=O)(OCCCC)OCCCC` (configuration not stated) gave a Kb in the assay filed under Rattus norvegicus of 129 nM. Also, the Ki in assay [1] was more than 1000 nM.
`CCCCNC(=O)OC(CCc1ccccc1)CP(=O)(OCCCC)OCCCC` (configuration not stated): the Kb in the assay listed under Rattus norvegicus was found to be 38 nM. Also, the Ki in assay [1] was more than 1000 nM.
For the compound `CCCCOC(=O)NC(CCc1ccccc1)CP(=O)(OCCCC)OCCCC` (configuration not stated), the Kb in the assay listed under Rattus norvegicus was 122 nM. Further, in assay [1], the Ki was more than 1000 nM.
In turn, `CCCCCC(=O)OC(Cc1ccccc1)CP(=O)(OCCCC)OCCCC` (configuration not stated) yielded a Kb in the assay filed under Rattus norvegicus of 211 nM. Moreover, in assay [1], the Ki was 560 nM.
As to `CCCCOP(=O)(CC(CCc1ccccc1)NP(=O)(OCC)OCC)OCCCC` (configuration not stated), the Kb in the assay listed under Rattus norvegicus is 62 nM. Further, the Ki in assay [1] is more than 1000 nM.
On to `CCCCOP(=O)(CC(CCc1ccccc1)OC(=O)C(C)(C)C)OCCCC` (configuration not stated), for which the Kb in the assay filed under Rattus norvegicus worked out at 105 nM. The Ki in assay [1] was more than 1000 nM.
In turn, `CCCCCC(=O)OC(CCc1ccccc1)CP(=O)(OCCCC)OCCCC` (configuration not stated) yielded a Kb in the assay listed under Rattus norvegicus of 6.6 nM. For the same compound, in assay [1], the inhibition constant (Ki) was found to be 51 nM.
Compound `CCCCOP(=O)(CC(CCc1ccccc1)NS(=O)(=O)c1ccc(C)cc1)OCCCC` (configuration not stated) returned a Kb in the assay listed under Rattus norvegicus of 348 nM. Also, in assay [1], the Ki was more than 1000 nM.
For `CCCCOP(=O)(CC(CCc1ccccc1)OC(=O)c1ccccc1)OCCCC` (configuration not stated) the same measures were 662 nM and more than 1000 nM.
The compound `CCCCOP(=O)(CC(CCc1ccccc1)OP(=O)(OCCCC)OCCCC)OCCCC` (configuration not stated) registered a Kb in the assay listed under Rattus norvegicus of 76 nM. Also, the Ki in assay [1] is 385 nM.
`CCCCOP(=O)(CC(CCc1ccccc1)OC(=O)C1CC1)OCCCC` (configuration not stated): the Kb in the assay listed under Rattus norvegicus amounted to 628 nM. Moreover, the Ki in assay [1] is more than 1000 nM.
`CCCCOC(=O)OC(CCc1ccccc1)CP(=O)(OCCCC)OCCCC` (configuration not stated) had a Kb in the assay listed under Rattus norvegicus of 255 nM. In addition, the Ki in assay [1] was more than 1000 nM.
For `CCCCCC(=O)OC(CCCc1ccccc1)CP(=O)(OCCCC)OCCCC` (configuration not stated) the same measures were more than 1000 nM and more than 1000 nM.
On to `CCCCOP(=O)(CC(CCc1ccccc1)OS(C)(=O)=O)OCCCC` (configuration not stated), for which the Kb in the assay filed under Rattus norvegicus is more than 1000 nM. In assay [2], this compound showed a Ki of more than 1000 nM.
In the assay filed under Rattus norvegicus, `CCCCOP(=O)(CC(CCc1ccccc1)OC(C)=O)OCCCC` (configuration not stated) yielded a Kb of 25 nM. Also, the Ki in assay [1] amounted to 55 nM.
In the assay filed under Rattus norvegicus, `CCCCOP(=O)(CC(CCc1ccccc1)OC(=O)C(F)(F)F)OCCCC` (configuration not stated) had a Kb of more than 1000 nM. Also, in assay [1], the Ki is more than 1000 nM.
In turn, `CCCCOP(=O)(CC(CCOc1ccccc1)CP(=O)(OCCCC)OCCCC)OCCCC` [BELFOSDIL] registered a Kb in the assay filed under Rattus norvegicus of 0.5 nM. In addition, the Ki in assay [1] amounted to 23 nM.
The compound `CCOP(=O)(Cc1ccc(-c2nc3ccccc3s2)cc1)OCC` [FOSTEDIL] registered a Kb in the assay filed under Rattus norvegicus of more than 1000 nM.
As to `COC(=O)C1=C(C)NC(C)=C(C(=O)OC)C1c1ccccc1[N+](=O)[O-]` [NIFEDIPINE], the Kb in the assay filed under Rattus norvegicus came to 0.5 nM. Further, the Ki in assay [1] was determined as 0.53 nM.

The term Ki denotes the equilibrium dissociation constant of an inhibitor or competing ligand from its target.
